These results are taken from patent US20140038920A1, “TFEB PHOSPHORYLATION INHIBITORS AND USES THEREOF” (FONDAZIONE TELETHON, priority 2011, published 2014).

Usually EC50 stands for the concentration giving half of the maximal effect.

The subject of experiment [1] is TFEB. The experiment in a line: TFEB nuclear localization in starved HeLa cells overexpressing TFEB, re-stimulated with media plus supplements or inhibitors (nuclear fractionation, Flag blot, immunofluorescence). Particulars: starved cells stimulated with normal medium supplemented with kinase inhibitor (FIG. 2g, 11b). Type of experiment: cell-based. From the text: (A) Scatter Plot graphs displaying the logarithmic value of the fold change differences in the relative expression levels of 51 autophagy-related genes in HeLa cells cultured in different conditions. X-axis=control group. Y-axis=treated group. Circles represent genes with increased (red) or decreased (green) fold change. Comparisons were as indicated. (B) Chromatin immunoprecipitation (ChIP) analysis. […] Values were normalized to the input and plotted as relative enrichment over a mock control. Experiments were performed in triplicate. (C) qPCR analysis of TFEB-target gene expression in normal, starved, and in TFEB-siRNA starved cells. GAPDH and HPRT represents housekeeping genes, while ATG10, ATG9A and ATG4D represent control genes (non-TFEB target genes). (D-F) HeLa cells stably overexpressing TFEB were left untreated or nutrient starved for 4 h. (D) Five fields containing 50-100 cells/each were analyzed for TFEB nuclear localization. […] (E) Cells were subjected to nuclear/cytosolic fractionation and blotted with Flag antibody. H3 and tubulin were used as nuclear and cytosolic markers, respectively. (F) Nuclear fractions were blotted with Flag and H3 (loading control) antibodies. (G) Western blot analysis of Flag, tubulin and H3 in nuclear extracts prepared from normal, starved and starved/stimulated with normal media cells for 1 h (normal) or pretreated with AP-2 (AKT inhibitor), Rapamycin (mTOR inhibitor) and U0126 (MEK inhibitor) 1 h prior to media stimulation. Total extracts were used to verify the efficiency of the inhibitors. […] Starvation was performed where indicated. (All error bars represent standard deviations. T-test (unpaired) p value (*)<0.05, (**)<0.01)
Cytosolic and nuclear fractions were subjected to Flag immunoblotting. […] Error bars represent standard deviations.
Cells were seeded at 50% of confluence in 6 well dishes and serum starved overnight (ON). Normal medium was added the following day either in presence of DMSO or kinase inhibitors. Subcellular fractionation was carried out as previously reported.
To identify the mechanism of starvation-induced activation of TFEB, the applicants analyzed its subcellular localization and post-translational modifications in starved cells.

The test system of experiment [2] is TFEB. The experiment in a line: High content TFEB-GFP nuclear translocation assay. Type of experiment: cell-based. Particulars: Homo sapiens, TFEB-GFP HeLa cells.
Experiment [3] has as its system ERK. The experiment in a line: p-ERK levels in primary hepatocytes (FIG. 21A). Type of experiment: cell-based, mouse. Particulars: primary hepatocytes treated overnight. From the text:
Subsequently, cells were lysed and protein extracts were immunoblotted with the indicated antibodies. […] Quantitative PCR (qPCR) of TFEB target genes in primary hepatocytes from control (flox/flox) and Tcfeb−/− (flox/flox; alb-Cre) mice. […] The expression levels are shown as % increased expression of the treated versus the corresponding untreated samples. Values represent means±s.d. of three independent hepatocyte preparations (three mice/genotype). Student's t-test (two tailed) *P-value ≦0.05.

Experiment [4] deals with glycosaminoglycan (GAG) accumulation in MSD NSCs. The experiment in a line: Alcian blue staining of GAGs in differentiated NSCs from MSD mice (FIG. 22). Type of experiment: cell-based, mouse. Particulars: glia-differentiated MSD NSCs, 10 nM, 24 hours, versus DMSO. Here is the method:
After 24 hours, the GAG content was determined by alcian blue (AB) staining. Both torins were able to reduce GAG staining in MSD treated cells as compared to DMSO treated cells.
Neuronal progenitor cells were isolated from cortices of WT and MSD pups (P0) by tissue homogenization using the neural tissue dissociation kit and separation using magnetic sorting of cells expressing the stem cell marker prominin-1 (Miltenyi Biotec Srl). Neuronal progenitor cells were maintained in ESGRO complete medium (Hyclone) in the presence of EGF and FGF2 growth factors (Prepotech). Where indicated, neural stem cells (NSCs) were differentiated by removing growth factors and incubate in ESGRO medium containing 2% of serum for at least 48 h.
Neuronal progenitor cells were isolated from cortices of WT and MSD pups (P0) by using standard protocols. Neuronal stem cells (NSCs) were fixed in Methacarn (60% Methanol; 10% Acetic Acid; 30% Chloroform) for 15 min at RT. After washing the cells were stained for 3 hours in 1% alcian blue pH 2.5, rinsed in 0.3% acetic acid and water and mounted in 100% for visualization.

The mark [5] stands for this setting: 3 h, ten concentrations 2.54 nM to 50 μM (FIG. 19D), read-out: EC50, TFEB nuclear translocation.
[6] abbreviates: mobilization of cytosolic TFEB to the nucleus, 3 h at 37° C. in RPMI, ten concentrations 50 μM to 2.54 nM, 4 runs, read-out: Average EC50.

Read-outs that look alike come from different tables or passages of the source.

Regarding `CO[C@H]1C[C@@H]2CC[C@@H](C)[C@@](O)(O2)C(=O)C(=O)N2CCCC[C@H]2C(=O)O[C@H]([C@H](C)C[C@@H]2CC[C@@H](O)[C@H](OC)C2)CC(=O)[C@H](C)/C=C(\C)[C@@H](O)[C@@H](OC)C(=O)[C@H](C)C[C@H](C)/C=C/C=C/C=C/1C` [RAPAMYCIN], in experiment [1], the TFEB nuclear localization result is recorded as “no effect”. Moreover, the concentration for a half-maximal effect (EC50) in experiment [2] (setting [5]) is 104 µM; in experiment [2] (setting [6]), greater than 15 µM.

With `CCC(=O)N1CCN(c2ccc(-n3c(=O)ccc4cnc5ccc(-c6cnc7ccccc7c6)cc5c43)cc2C(F)(F)F)CC1` [TORIN 1], the “levels of p-ERK” value in experiment [3] is listed as “unaffected”. Moreover, the “alcian blue-stained GAGs” value in experiment [4] is on record as “striking reduction”. Moreover, the EC50 in experiment [2] (setting [5]) is 0.148 µM; in experiment [2] (setting [6]), less than 7 µM.
